Reference: patent US8901317B2, “Tryptamine derivatives, their preparation and their use in gastropathy” (Council of Scientific & Industrial Research, priority 2010, dated 2014)

Key:
[1] = Ferric reducing antioxidant power (FRAP) assay; details: for FRAP Value6 min (μM) M ± SD: 6 min; for FRAP Value6 min (μM) M ± SD / FRAP Value65 min (μM) M ± SD: compound at 10 μM relative to ferrous sulfate; for FRAP Value65 min (μM) M ± SD: 65 min
Procedure: The antioxidant property of different tryptamine derivatives were assessed and compared with the known antioxidants for potency. […] The FRAP assay is based on the measurement of the ability of the substance to reduce Fe^3+ to Fe^2+, greater the reducing ability greater the anti oxidant property. Antioxidants reduce Fe^3+-TPTZ in to blue colored Fe^2+-TPTZ complex, which results in an increase in the absorbance at 595 nm giving a FRAP value. […] Absorbance changes at different time intervals (FIG. 6) as well as at different concentrations (FIG. 7) at time 6 min in the presence of different compounds at 595 nm were measured. FRAP values at 6 min and 65 min were calculated from different tryptamine derivatives and some known antioxidant (Table 1). […] DPPH assay based on the DPPH free radicals scavenging power of the antioxidant molecules. Higher the scavenging power higher will be the antioxidant property.
The assay was performed in a 96-well microplate. FRAP reagent was prepared by mixing of 10 ml acetate buffer (200 mM, pH-3.6), 1 ml of 2,4,6-tris(2-pyridyl)-s-triazine (TPTZ) solution (10 mM in 40 mM HCl) and 1 ml of ferric chloride solution (20 mM) in distilled water. For 1 h the mixture was kept in a water bath at 37° C. In 96-well microplates, 25 μL of the compounds under investigation dissolved (in methanol, some compound dissolved in water) at different concentrations in the range 1-25 μM was placed in triplicate and freshly prepared FRAP solution (175 μL) was added to this sample. A micro plate reader monitored the absorbance at 595 nm at different time intervals for up to 150 min. The absorbance of a mixture 175 μL TRAP sol and 25 μL methanol or water was taken which was subtracted from the absorbance of the samples at each time interval to calculate the absorbance change (ΔA). The FRAP value at time interval t (FRAP valuet) was calculated according to the formula: FRAP valuet(M)=(ΔatFl/ΔatFe^2+)×10^−5 Where ΔatFl is the absorbance change after the time interval t (6 and 65 min) relative to the tested flavonoid at the concentration of 10 μM and ΔatFe^2+ is the absorbance change at the same time interval relative to ferrous sulfate at the same concentration (Pal, C; et al. Free Radic Biol Med, 49(2), 258-267, 2010, Firuzi, O; et al. Biochim. Biophys. Acta 1721:174-184; 2005).

[2] = DPPH free radical scavenging assay; details: compounds 100 μM; 517 nm (Table 2)
Procedure: The antioxidant property of different tryptamine derivatives were assessed and compared with the known antioxidants for potency. A range of different synthesized compounds and known anti oxidants, quercetin, ascorbic acid and gallic acid were analyzed by the FRAP assay. The FRAP assay is based on the measurement of the ability of the substance to reduce Fe^3+ to Fe^2+, greater the reducing ability greater the anti oxidant property. Antioxidants reduce Fe^3+-TPTZ in to blue colored Fe^2+-TPTZ complex, which results in an increase in the absorbance at 595 nm giving a FRAP value. […] Absorbance changes at different time intervals (FIG. 6) as well as at different concentrations (FIG. 7) at time 6 min in the presence of different compounds at 595 nm were measured. FRAP values at 6 min and 65 min were calculated from different tryptamine derivatives and some known antioxidant (Table 1). […] DPPH assay based on the DPPH free radicals scavenging power of the antioxidant molecules. Higher the scavenging power higher will be the antioxidant property. […] This assay was performed in presence of some known antioxidants such as ascorbic acid, quercetin and gallic acid.
2,2-Diphenyl-1-Picrylhydrazyl (DPPH) is a stable free radical that can accept hydrogen radical or an electron and become a stable diamagnetic molecule. The antioxidants can scavenge the DPPH by donating hydrogen as visualized by discoloration of the DPPH radical from purple to yellow (Pal, C; et al. Free Radic Biol Med, 49(2), 258-267; 2010, Ben Farhat, M.; et al. J. Agric. Food Chem. 57:10349-10356; 2009, Han, J; et al. Wei Sheng Yan Jiu 38:596-598; 2009). The assay system contained 1 mL of compounds under investigation dissolved (in methanol, some compound dissolved in water) at different concentrations in the range 10-100 μM solution and 4 ml of DPPH (0.15 mM) in methanol (80% in water v/v) and mixed well. It was allowed to stand for 30 min at 27° C. away from light. Ascorbic acid at the same concentration was taken as positive control. The absorbance of the solution was measured spectrophotometrically at 517 nm and from the decrease of absorption; the antioxidant activity of different tryptamine derivatives were determined.

[3] = system: CaCo2 colon cancer cells; details: literature (Shoeb et al. 2006); cited from earlier work
[4] = system: rats; experiment: Toxicity (death) after injection in rats; format: in vivo
[5] = literature (Shahrzad et al. 2001); cited from earlier work

SMILES	FRAP Value6 min (μM) M ± SD [1]	FRAP Value65 min (μM) M ± SD [1]	Absorbance change (ΔA) at 30 min [2]	in vitro cytotoxic activity [3]	death of rats after injection ([4]; injected, dose not given)	bioavailability in plasma [5]	reducing ability (Fe^3+ to Fe^2+) / antioxidant property in words ([1]; compared to other tryptamine derivatives and known antioxidants)	death of rats after injection ([4]; i.p. 25 mg kg^−1)	death of rats after injection ([4]; i.p. 50 mg kg^−1)
O=C(/C=C/c1ccc(O)cc1)NCCc1c[nH]c2ccc(O)cc12 [Compound 2b, (E)-N-(2-(5-hydroxy-1H-indol-3-yl)ethyl)-3-(4-hydroxyphenyl)acrylamide]	3.09 ± 0.13 µM	7.44 ± 1.47 µM	0.12 ± 0.01	shows in vitro cytotoxic activity	–	–	–	–	–
NCCc1c[nH]c2ccc(OC(=O)CCCC(=O)NCCc3c[nH]c4ccc(O)cc34)cc12 [Compound 6c, 3-(2-aminoethyl)-1H-indol-5-yl 5-(2-(5-hydroxy-1H-indol-3-yl)ethylamino)-5-oxopentanoate]	17.51 ± 0.38 µM	29.78 ± 3.87 µM	0.19 ± 0.03	–	all the rats were found dead within 20 mins	–	–	–	–
O=C(O)c1cc(O)c(O)c(O)c1 [Gallic acid, reference compound]	33.90 ± 4.92 µM	46.59 ± 8.41 µM	–	–	–	low	–	–	–
NCCc1c[nH]c2ccc(O)cc12 [Serotonin, 5-hydroxytryptamine, reference compound]	21.61 ± 3.65 µM	35.48 ± 6.55 µM	–	–	–	–	very little antioxidant property	all the rats were found to be dead	all the rats were found to be dead
